In ChEMBL document CHEMBL1201862, “PubChem BioAssay data set” (2004):
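Interpolation was linear, between the two tested concentrations surrounding the appropriate level; five concentrations were tested over 48 hours in 96-well plates. GI50: concentration for 50% inhibition of growth.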 Activity calls are given as the source filed them. Rule as the data show it: active = GI50 up to about 1.1 µM and inactive = higher. Numbered stars: 1 amine (or outer) side, 2 acyl side, 3 side chain; on linkers, the order of the positions; unused ones are H or OH. Square brackets hold non-standard residues; d marks the D form. Peptide text beside a SMILES is read from it. * marks the point of attachment. X30 = CC(=O)N(C)SCC(N[*:1])C(=O)[*:2]; Cbz = O=C(OCc1ccccc1)*; Boc = CC(C)(C)OC(=O)*; Bn = c1ccc(C*)cc1

Experiments:
Test in all cases: NCI anticancer screen, dose series, 48 h
DMS-114 = test system: DMS-114
SF-295 = test system: SF-295
M14 = test system: M14
SNB-19 = test system: SNB-19
SK-MEL-2 = test system: SK-MEL-2
IGROV-1 = test system: IGROV-1
SF-268 = test system: SF-268
RXF 393 = test system: RXF 393
SNB-75 = test system: SNB-75
HCC 2998 = test system: HCC 2998
OVCAR-8 = test system: OVCAR-8
UACC-257 = test system: UACC-257
HOP-92 = test system: HOP-92
SR = test system: SR
SK-MEL-28 = test system: SK-MEL-28
TK-10 = test system: TK-10
LOX IMVI = test system: LOX IMVI
OVCAR-5 = test system: OVCAR-5
NCI-H226 = test system: NCI-H226
PC-3 = test system: PC-3

| Structure (SMILES) | GI50 (DMS-114) | GI50 (SF-295) | GI50 (M14) | GI50 (SNB-19) | GI50 (SK-MEL-2) | GI50 (IGROV-1) | GI50 (SF-268) | GI50 (RXF 393) | GI50 (SNB-75) | GI50 (HCC 2998) | GI50 (OVCAR-8) | GI50 (UACC-257) | GI50 (HOP-92) | GI50 (SR) | GI50 (SK-MEL-28) | GI50 (TK-10) | GI50 (LOX IMVI) | GI50 (OVCAR-5) | GI50 (NCI-H226) | GI50 (PC-3) |
| --- | --- | --- | --- | --- | --- | --- | --- | --- | --- | --- | --- | --- | --- | --- | --- | --- | --- | --- | --- | --- |
| COC(=O)/C(C#N)=C1\CCC(C(=O)OC)N1C (stereo not drawn) | > 100 µM (inactive) | > 100 µM (inactive) | > 100 µM (inactive) | > 100 µM (inactive) | > 100 µM (inactive) | > 100 µM (inactive) | > 100 µM (inactive) | > 100 µM (inactive) | > 100 µM (inactive) | > 100 µM (inactive) | > 100 µM (inactive) | > 100 µM (inactive) | > 100 µM (inactive) | > 100 µM (inactive) | > 100 µM (inactive) | > 100 µM (inactive) |  |  |  |  |
| C=Cc1c(-c2ccccc2)cnc2[nH]c3ccccc3c12 | > 50 µM (inactive) | > 50 µM (inactive) | > 50 µM (inactive) | > 50 µM (inactive) | > 50 µM (inactive) | > 50 µM (inactive) | > 50 µM (inactive) | > 50 µM (inactive) | 6.59 µM (inactive) | > 50 µM (inactive) | > 50 µM (inactive) | > 50 µM (inactive) |  | > 50 µM (inactive) | > 50 µM (inactive) | > 50 µM (inactive) | > 50 µM (inactive) | > 50 µM (inactive) |  |  |
| Cc1cccc2c1CCC21OC(=O)c2c1ccc1ccccc21 (stereo not drawn) | 24.8 µM (inactive) | 55.5 µM (inactive) | 23.7 µM (inactive) | 90.4 µM (inactive) | 24.5 µM (inactive) | 55.2 µM (inactive) | > 100 µM (inactive) | 64 µM (inactive) | 82.6 µM (inactive) | 29.4 µM (inactive) | 85.9 µM (inactive) | 25.8 µM (inactive) |  | 29.2 µM (inactive) | 58.2 µM (inactive) | 36.1 µM (inactive) | 54.8 µM (inactive) | 88.5 µM (inactive) | 56.4 µM (inactive) |  |
| O=C1CSC(/C(=C/c2ccccc2)c2nc3ccccc3[nH]2)=N1 | 32.3 µM (inactive) | 63.8 µM (inactive) | 57 µM (inactive) | 25.9 µM (inactive) | 58.2 µM (inactive) | 44.9 µM (inactive) | > 100 µM (inactive) |  | 14.2 µM (inactive) | > 100 µM (inactive) | 47.2 µM (inactive) | > 100 µM (inactive) | 61.4 µM (inactive) | 68.2 µM (inactive) | > 100 µM (inactive) | > 100 µM (inactive) | > 100 µM (inactive) | > 100 µM (inactive) | 7.55 µM (inactive) |  |
| CCCC(O)c1cn(-c2cccc(S(=O)(=O)O)c2)nn1 (stereo not drawn) | > 100 µM (inactive) | > 100 µM (inactive) | > 100 µM (inactive) | > 100 µM (inactive) | > 100 µM (inactive) | > 100 µM (inactive) | > 100 µM (inactive) | > 100 µM (inactive) | > 100 µM (inactive) | > 100 µM (inactive) | > 100 µM (inactive) | > 100 µM (inactive) | > 100 µM (inactive) |  | > 100 µM (inactive) | > 100 µM (inactive) | > 100 µM (inactive) | > 100 µM (inactive) | > 100 µM (inactive) |  |
| C/C(=N/Nc1ccc([N+](=O)[O-])cc1[N+](=O)[O-])C(CC(C(=O)Nc1ccccc1C)/C(C)=N\Nc1ccc([N+](=O)[O-])cc1[N+](=O)[O-])C(=O)Nc1ccccc1C (stereo not drawn) | 6.87 µM (inactive) | 16.1 µM (inactive) | 18 µM (inactive) | 14 µM (inactive) | 13.3 µM (inactive) | 15.8 µM (inactive) | 7.67 µM (inactive) | 6.49 µM (inactive) | 10.1 µM (inactive) | 21.6 µM (inactive) | 6 µM (inactive) | 14.4 µM (inactive) | 7.08 µM (inactive) |  | 21.9 µM (inactive) | 17.9 µM (inactive) | 14.4 µM (inactive) | 16.9 µM (inactive) | 6.65 µM (inactive) |  |
| N#CCC(=O)N1CCCCCCC1 | 31.3 µM (inactive) | > 100 µM (inactive) | > 100 µM (inactive) | > 100 µM (inactive) | > 100 µM (inactive) | > 100 µM (inactive) | > 100 µM (inactive) | > 100 µM (inactive) |  | 69.3 µM (inactive) |  | > 100 µM (inactive) |  |  | > 100 µM (inactive) | > 100 µM (inactive) | > 100 µM (inactive) | > 100 µM (inactive) |  |  |
| CCN(CC)Cc1cc(Nc2c3ccccc3nc3c2[nH]c2ccccc23)ccc1O | 1.64 µM (inactive) | 1.37 µM (inactive) | 1.7 µM (inactive) | 1.63 µM (inactive) | 1.34 µM (inactive) | 1.16 µM (inactive) | 1.42 µM (inactive) | 1.31 µM (inactive) | 1.59 µM (inactive) |  | 1.08 µM (active) | 2.44 µM (inactive) | 1.5 µM (inactive) | 0.337 µM (active) | 1.8 µM (inactive) | 3.61 µM (inactive) | 1.22 µM (inactive) | 1.22 µM (inactive) | 1.85 µM (inactive) |  |
| COC1(C)C(=O)N2C1N(C(=O)OC(C)(C)C)CC2(C)C (stereo not drawn) | 42.8 µM (inactive) | > 100 µM (inactive) | > 100 µM (inactive) | > 100 µM (inactive) | > 100 µM (inactive) | > 100 µM (inactive) | > 100 µM (inactive) | > 100 µM (inactive) | > 100 µM (inactive) | > 100 µM (inactive) | > 100 µM (inactive) | > 100 µM (inactive) | > 100 µM (inactive) |  | > 100 µM (inactive) | > 100 µM (inactive) | 23.5 µM (inactive) | > 100 µM (inactive) | > 100 µM (inactive) |  |
| COC(=O)C(Cc1ccccc1)NC(=O)C(CS)NC(=O)OC(C)(C)C (stereo not drawn) (Boc-Cys-Phe-OMe; configuration not given here) |  | > 100 µM (inactive) | > 100 µM (inactive) | > 100 µM (inactive) | > 100 µM (inactive) | > 100 µM (inactive) | > 100 µM (inactive) | 26 µM (inactive) | > 100 µM (inactive) | > 100 µM (inactive) | > 100 µM (inactive) | > 100 µM (inactive) | > 100 µM (inactive) | 27.2 µM (inactive) | > 100 µM (inactive) | > 100 µM (inactive) | 69.2 µM (inactive) | > 100 µM (inactive) | > 100 µM (inactive) | > 100 µM (inactive) |
| CC(=O)N(C)SCC(NC(=O)C(Cc1ccccc1)NC(=O)OCc1ccccc1)C(=O)NC(Cc1ccccc1)C(=O)NC(Cc1c[nH]c2ccccc12)C(=O)NC(CCCCNC(=O)OCc1ccccc1)C(=O)NC(C(=O)NC(CSN(C)C(C)=O)C(=O)NC(C(N)=O)C(C)OCc1ccccc1)C(C)OCc1ccccc1 (stereo not drawn) (Cbz-F[X30]FWK(Cbz)T(Bn)[X30]T(Bn)-NH2; configuration not given here) |  | > 100 µM (inactive) | > 100 µM (inactive) | > 100 µM (inactive) | > 100 µM (inactive) | > 100 µM (inactive) | > 100 µM (inactive) | > 100 µM (inactive) | > 100 µM (inactive) | > 100 µM (inactive) | > 100 µM (inactive) | > 100 µM (inactive) | 72.1 µM (inactive) | > 100 µM (inactive) | > 100 µM (inactive) | > 100 µM (inactive) | 86.5 µM (inactive) | > 100 µM (inactive) | > 100 µM (inactive) | > 100 µM (inactive) |
